Values of other authors in patent US20200069758A1, “COMPOSITION FOR USE IN THE PREVENTIVE AND/OR CURATIVE TREATMENT OF NON-ALCOHOLIC FATTY LIVER DISEASE” (NORMAPHAR SA, priority 2018, published 2020).

Conditions: background art statement; for complications / mortality on administration: long-term or high-dose administration

CN(C)C(=N)N=C(N)N [metformin]
reduction of non-alcoholic fatty liver disease (simple fatty liver disease, NASH): failed to significantly reduce

CCc1ccc(CCOc2ccc(CC3SC(=O)NC3=O)cc2)nc1 (stereo not shown) [pioglitazone]
complications / mortality on administration: heart failure, osteoporosis and weight gain

Vitamin E
reduction of non-alcoholic fatty liver disease (simple fatty liver disease, NASH): reductions were observed in the inflammation and non-alcoholic fatty liver disease | complications / mortality on administration: increases all-cause mortality
